Tested on: enteroendocrine proglucagon-containing cells (L-cells)
Conditions: perfused mouse proximal small intestine, n = 4; basal to peak; P < 0.001

[Cl-].[K+] [KCl]
increase of GLP-1 secretion during infusion: ~ 10 fold
increase of oxyntomodulin secretion during infusion: ~ 9 fold
